From ChEMBL document CHEMBL2384916, “Synthesis and in vitro evaluation of a PDT active BODIPY-NLS conjugate” (Bioorg Med Chem Lett, 2013)

Key:
[1] = Drug uptake in nucleus of human T24 cells at 100 nM after 30 mins by confocal microscopic analysis; assay type: ADME, cell-based; conditions: t-24, 0.5 h, 0.1 µM
[2] = Drug uptake in endoplasmic reticulum of human T24 cells at 100 nM after 30 mins by confocal microscopic analysis; assay type: ADME, cell-based; conditions: t-24, 0.5 h, 0.1 µM
T-24 [3] = experiment: Phototoxicity against human T24 cells assessed as growth inhibition incubated for 4 hrs followed by irradiation for 15 mins measured after 24 hrs by MTT assay; assay type: functional, cell-based; conditions: T-24, light or radiation study
[4] = Drug uptake in lysosome of human T24 cells at 100 nM after 30 mins by confocal microscopic analysis; assay type: ADME, cell-based; conditions: t-24, 0.5 h, 0.1 µM
T-24 [5] = experiment: Cytotoxicity against human T24 cells assessed as growth inhibition after 24 hrs by MTT assay in absence of light; assay type: cell-based; conditions: T-24, 24 h

Drug uptake [1]	Drug uptake [2]	Drug uptake [4]	SMILES	IC50 (T-24 [3]) [nM]	IC50 (T-24 [5]) [nM]
Not Active	Active	Active	CC1=C(I)C(C)=[N+]2C1=C(c1ccc(-c3cn(CC(=O)N4CCC[C@H]4C(=O)N[C@@H](CCCCN)C(=O)N[C@@H](CCCCN)C(=O)N[C@@H](CCCCN)C(=O)N[C@@H](CCCNC(=N)N)C(=O)N[C@@H](CCCCN)C(=O)N[C@H](C(N)=O)C(C)C)nn3)cc1)c1c(C)c(I)c(C)n1[B-]2(F)F	16	> 10000
Not Active	Not Active	Active	CC1=C(I)C(C)=[N+]2C1=C(c1ccc(-c3cn(CC(=O)OC(C)(C)C)nn3)cc1)c1c(C)c(I)c(C)n1[B-]2(F)F	42	> 10000
